Measured values published in patent US20250296938A1, “Compounds that Interact with the Ras Superfamily for the Treatment of Cancers, Inflammatory Diseases, Rasopathies, and Fibrotic Disease” (SHY Therapeutics, LLC, priority 2018, published 2025).
Blank lines part the entries; values can stand above or below the molecule they belong to.

Experiments:
[1] = biological target: GTP binding domain of Ras; details: literature (Feuerstein 1987; John 1990); cited from earlier work
Rho-A [2] = biological target: T1, Rho-A (Homo sapiens, UniProt P61586); test: Scintillation Proximity Assay (SPA), GTP affinity; format: binding
Rac-1 [3] = biological target: T2, Rac-1 (Homo sapiens, UniProt P63000); test: MicroScale Thermophoresis (MST), GTP affinity; format: binding
Rac-1 [4] = biological target: T2, Rac-1; test: Scintillation Proximity Assay (SPA), GTP affinity; format: binding
Rho-A [5] = biological target: T1, Rho-A; test: MicroScale Thermophoresis (MST), GTP affinity; format: binding
Excerpt: (§1) As disclosed in International Application No. PCT/US2018/038613 and U.S. patent application Ser. No. 16/013,872, the affinity of GTP for the GTP binding domain of K-Ras utilizing a Scintillation Proximity Assay (SPA) and MicroScale Thermophoresis (MST) has been measured. These methods were not available when Wittinghofer and colleagues undertook their studies.
(§2) This therefore led to the novel, unanticipated conclusion that compounds such as small molecules could be discovered that would bind to a Ras GTP binding domain and compete with the binding of GTP to Ras.
(§3) See Khawaja et al., “Scintillation proximity assay in lead discovery”, Expert Opin. Drug Discov., 2008 November; 3 (11): 1267-80 regarding SPA procedures. See the following references regarding MST technology: Wienken et al., Nature Communications (2010), Protein binding assays in biological liquids using MicroScale Thermophoresis; Jerabek-Willemsen et al., ASSAY and Drug Development Technologies (2011), Molecular interaction studies using MicroScale Thermophoresis; Lin et al., Cell (2012), Inhibition of basal FGF receptor signaling by dimeric Grb2; Seidel et al., Angewandte Chemie (2012), Label-Free MicroScale Thermophoresis discriminates sites and affinity of protein-ligand binding; Seidel et al., Methods (2012), MicroScale Thermophoresis quantifies biomolecular interactions under previously challenging conditions; Parker & Newstead, Nature (2014), Molecular basis of nitrate uptake by the plant nitrate transporter NRT1.1; and Jerabek-Willemsen et al., Journal of Molecular Structure (2014), MicroScale Thermophoresis: Interaction analysis and beyond.

K-Ras (G12C) [6] = biological target: T3, K-Ras (G12C) (Homo sapiens, UniProt P01116, G12C); test: MicroScale Thermophoresis (MST), GTP affinity; format: binding
Excerpt: as §1, §2, §3

K-Ras (G12D) [7] = biological target: T4, K-Ras (G12D) (Homo sapiens, UniProt P01116, G12D); test: MicroScale Thermophoresis (MST), GTP affinity; format: binding
Excerpt: as §1, §2, §3

K-Ras (Q61H) [8] = biological target: T5, K-Ras (Q61H) (Homo sapiens, UniProt P01116, Q61H); test: MicroScale Thermophoresis (MST), GTP affinity; format: binding
Excerpt: as §1, §2, §3

K-Ras (wild type) [9] = biological target: T6, K-Ras (wild type) (Homo sapiens, UniProt P01116); test: MicroScale Thermophoresis (MST), GTP affinity; format: binding
Excerpt: as §1, §2, §3

Rac-1 and Rho-A = test: SPA and MST studies, GTP affinity for Rho subfamily members; details: read-out: affinity of GTP for the binding domain of Rho subfamily members
Excerpt: as §2, §3

K-Ras GTP binding domain = test: SPA and MST studies, GTP affinity across wild type and mutant K-Ras
Excerpt: as §2, §3

K-Ras (G12C) [10] = biological target: T3, K-Ras (G12C); test: Scintillation Proximity Assay (SPA), GTP affinity; format: binding
Excerpt: as §1, §2, §3

K-Ras (G12D) [11] = biological target: T4, K-Ras (G12D); test: Scintillation Proximity Assay (SPA), GTP affinity; format: binding
Excerpt: as §1, §2, §3

K-Ras (Q61H) [12] = biological target: T5, K-Ras (Q61H); test: Scintillation Proximity Assay (SPA), GTP affinity; format: binding
Excerpt: as §1, §2, §3

K-Ras (wild type) [13] = biological target: T6, K-Ras (wild type); test: Scintillation Proximity Assay (SPA), GTP affinity; format: binding
Excerpt: as §1, §2, §3

MEK phosphorylation [14] = test: Western MEK cell-based phosphorylation assay, MIA PaCa-2; details: Homo sapiens
Method: (§4) Cell lines: Human NSCLC cells NCI-H1975 and tumor-derived pancreatic cancer cell lines Panc-1 and MIA-PaCa-2 were all purchased from American Type Culture Collection and grown in complete RPMI medium (NCI-H1975) or DMEM-High Glucose (Panc1 and MIA-PaCa-2), supplemented with penicillin (100 U/mL), streptomycin (100 μg/mL), and 10% heat-inactivated FBS at 37° C. in a humidified incubator with 5% CO2.
(§5) Method: Cells were plated at 350000 cells/well density in a 12-well plate, allowed 3 hours to adhere to the plate, then starved in the appropriate medium in the presence of 0.5% FBS overnight. The small molecules to be tested were added to the cells in the final concentration of 10 μM in the presence of 0.3% DMSO for 6 hours incubation at 37° C. […] Protein concentration was assessed by BCA protein assay (Thermo Scientific). Phosphorylation level of MEK was determined by western blot.
(§6) Western blot protocol: Equal amounts of protein (15-50 μg) were separated by SDS-PAGE and transferred to nitrocellulose membranes (Invitrogen by Thermo Fisher Scientific). […] Membranes were blocked with 10% milk and phosphorylation levels of MEK were assessed by incubating overnight at 4° C. with anti-phospho-MEK 1/2 (Ser217/Ser221) antibody (Cell Signaling) followed by HRP-conjugated secondary antibody (Jackson Immunoresearch, West Grove, PA). […]

MEK phosphorylation [15] = test: Western MEK cell-based phosphorylation assay, PANC-1; details: Homo sapiens
Method: as §4
Method: Cells were plated at 350000 cells/well density in a 12-well plate, allowed 3 hours to adhere to the plate, then starved in the appropriate medium in the presence of 0.5% FBS overnight. The small molecules to be tested were added to the cells in the final concentration of 10 μM in the presence of 0.3% DMSO for 6 hours incubation at 37° C. For IC50 value determination, serial dilutions of compounds were added to cells under the same conditions. Next, cells were stimulated with 1.5 ng/ml EGF for 15 minutes then cells were lysed with lysis buffer containing 1% Triton X-100, EDTA, and Halt™ Protease & Phosphatase Inhibitor Cocktail (Thermo Scientific). Protein concentration was assessed by BCA protein assay (Thermo Scientific). Phosphorylation level of MEK was determined by western blot.
Western blot protocol: Equal amounts of protein (15-50 μg) were separated by SDS-PAGE and transferred to nitrocellulose membranes (Invitrogen by Thermo Fisher Scientific). The membrane was stained with Ponceau S Stain (Boston BioProducts) to verify uniform protein loading. Membranes were blocked with 10% milk and phosphorylation levels of MEK were assessed by incubating overnight at 4° C. with anti-phospho-MEK 1/2 (Ser217/Ser221) antibody (Cell Signaling) followed by HRP-conjugated secondary antibody (Jackson Immunoresearch, West Grove, PA). Bands were incubated in Amersham ECL Prime Western Blotting Detection Reagent (GE Healthcare) and visualized using the ChemiDoc MP imaging system (Bio-Rad).

MEK phosphorylation [16] = test: Western MEK cell-based phosphorylation assay, NCI H1975; details: Homo sapiens
Method: as §4, §5, §6

GTP-bound RAS [17] = test: Cell-based Ras-GTP pulldown assay, MIA PaCa-2; details: Homo sapiens; for inhibition at 10 µM: 6 hours, EGF stimulation
Method: (§7) Cell lines: Human NSCLC cells NCI-H1975, and tumor-derived pancreatic cancer cell lines Panc-1, and MIA-PaCa-2, were all purchased from American Type Culture Collection and grown in complete RPMI medium (NCI-H1975) or DMEM-High Glucose (Panc1 and MIA-PaCa-2), supplemented with penicillin (100 U/mL), streptomycin (100 μg/mL), and 10% heat-inactivated FBS at 37° C. in a humidified incubator with 5% CO2.
(§8) Method: Cells were plated at 2·10^6 cells/well density in a 6-well plate, allowed 3 hours to adhere to the plate, then starved in the appropriate medium in the presence of 0.5% FBS overnight. The small molecules to be tested were added to the cells in the final concentration of 10 μM in the presence of 0.3% DMSO for 6 hours incubation at 37° C. For IC50 value determination, serial dilutions of compounds were added to cells under the same conditions. Next, cells were stimulated with 5 ng/mL EGF for 5 minutes, rinsed with ice-cold PBS and then lysed with 500 μL of lysis/binding/wash buffer (25 mM Tris-HCl, pH 7.2, 150 mM NaCl, 5 mM MgCl2, 5% glycerol, 1% NP40) from Active Ras Detection kit (Cell signaling Technology, #8821) supplemented with Halt™ Protease & Phosphatase Inhibitor Cocktail (Thermo Scientific). To account for significant differences in cell number due to the treatment, a small sample of lysate was saved for protein quantification and the rest of the lysate was snap frozen. Protein concentration was assessed by BCA protein assay (Thermo Scientific). To ensure that equal amount of protein undergoes RBD pulldown, lysates were subsequently thawed (at RT) and adjusted to 1 mg/mL with lysis/binding/wash buffer (0.5 mL volume). Equal amounts of lysate were then added to 0.5 mL lysis buffer containing RAF-RBD (1 mL total volume). Lysates were vortexed, incubated for 10 min on ice and subsequently pre-cleared at 14,000 rpm for 5 min at 4° C. 90% of the pre-cleared lysates were subsequently added to pre-washed glutathione agarose beads from Active Ras Detection kit (Cell signaling Technology, #8821) for 1 hour at 4 °C under constant rocking. The beads were subsequently pelleted, washed 3 times with lysis/binding/wash buffer, and eluted for western blotting with 50 μL of 1×SDS-PAGE sample buffer. Level of GTP-bound RAS was determined by western blot.
Western blot protocol: Equal volumes of eluate (25 μL) were separated by 16% SDS-PAGE and transferred to nitrocellulose membranes (Invitrogen by Thermo Fisher Scientific). The membrane was stained with Ponceau S Stain (Boston BioProducts) to verify uniform protein loading. Membranes were blocked with 5% BSA in TBST and then incubated overnight at 4° C. with anti-RAS mouse monoclonal antibody from the Active Ras Detection kit (Cell signaling Technology, #8821), followed by HRP-conjugated secondary antibody (Jackson Immunoresearch, West Grove, PA). Membranes were incubated in Amersham ECL Prime Western Blotting Detection Reagent (GE Healthcare) and bands were visualized using the ChemiDoc MP imaging system (Bio-Rad).

GTP-bound RAS [18] = test: Cell-based Ras-GTP pulldown assay, NCI H1975; details: Homo sapiens; for inhibition at 10 µM: 6 hours, EGF stimulation
Method: as §7, §8
(§9) Western blot protocol: Equal volumes of eluate (25 μL) were separated by 16% SDS-PAGE and transferred to nitrocellulose membranes (Invitrogen by Thermo Fisher Scientific). The membrane was stained with Ponceau S Stain (Boston BioProducts) to verify uniform protein loading. […]

GTP-bound RAS [19] = test: Cell-based Ras-GTP pulldown assay, PANC-1; details: Homo sapiens; for inhibition at 10 µM: 6 hours, EGF stimulation
Method: as §7, §8, §9

T4 sequence (P01116 1-188 isoform P01116-2 G12D): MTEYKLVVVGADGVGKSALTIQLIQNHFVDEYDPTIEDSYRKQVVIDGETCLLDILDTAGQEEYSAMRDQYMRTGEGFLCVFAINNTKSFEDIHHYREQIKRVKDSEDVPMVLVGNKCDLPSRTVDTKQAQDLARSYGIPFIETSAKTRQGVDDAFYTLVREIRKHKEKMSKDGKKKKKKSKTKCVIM
T3 sequence (P01116 1-188 isoform P01116-2 G12C): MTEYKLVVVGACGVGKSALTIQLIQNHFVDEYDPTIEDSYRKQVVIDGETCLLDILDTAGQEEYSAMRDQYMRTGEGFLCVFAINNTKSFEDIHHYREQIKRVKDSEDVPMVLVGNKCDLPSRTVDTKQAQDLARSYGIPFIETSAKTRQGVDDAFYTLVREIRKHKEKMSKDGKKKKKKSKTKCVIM
T5 sequence (P01116 1-188 isoform P01116-2 Q61H): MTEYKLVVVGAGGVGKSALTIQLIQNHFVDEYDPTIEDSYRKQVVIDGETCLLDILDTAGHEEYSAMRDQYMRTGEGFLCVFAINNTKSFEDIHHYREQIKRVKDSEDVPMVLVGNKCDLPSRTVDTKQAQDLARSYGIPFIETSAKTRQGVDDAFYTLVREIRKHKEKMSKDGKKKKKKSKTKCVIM
T6 sequence (P01116 1-188 isoform P01116-2): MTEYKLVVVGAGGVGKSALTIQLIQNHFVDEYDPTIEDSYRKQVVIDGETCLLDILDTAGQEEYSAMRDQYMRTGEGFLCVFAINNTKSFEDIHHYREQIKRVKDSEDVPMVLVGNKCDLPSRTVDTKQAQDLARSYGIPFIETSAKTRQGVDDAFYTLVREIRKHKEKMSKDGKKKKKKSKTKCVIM
T1 sequence (P61586 whole entry): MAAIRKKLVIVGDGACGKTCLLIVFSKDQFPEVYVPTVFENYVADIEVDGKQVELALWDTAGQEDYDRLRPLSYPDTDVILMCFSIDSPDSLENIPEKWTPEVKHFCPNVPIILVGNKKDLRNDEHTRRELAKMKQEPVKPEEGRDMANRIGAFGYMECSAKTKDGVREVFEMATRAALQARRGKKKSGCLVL

Compound: Nc1nc2c(ncn2[C@@H]2O[C@H](COP(=O)(O)OP(=O)(O)O)[C@@H](O)[C@H]2O)c(=O)[nH]1 [GDP]
affinity for the GTP binding domain of Ras [1]: single to double digit picomolar

Kd (Rho-A [2]): 129 ± 12 nM | Kd (Rac-1 [3]): 166 ± 10 nM | Kd (Rac-1 [4]): 151 ± 14 nM | Kd (Rho-A [5]): 130 ± 5 nM | Kd (K-Ras (G12C) [6]): 207 ± 46 nM | Kd (K-Ras (G12D) [7]): 244 ± 12 nM | Kd (K-Ras (Q61H) [8]): 157 ± 21 nM | Kd (K-Ras (wild type) [9]): 463 ± 2 nM | Kd (Rac-1 and Rho-A): 120 to 170 nM | Kd (K-Ras GTP binding domain): 100 to 465 nM | Kd (K-Ras (G12C) [10]): 258 ± 18 nM | Kd (K-Ras (G12D) [11]): 270 ± 15 nM | Kd (K-Ras (Q61H) [12]): 118 ± 11 nM | Kd (K-Ras (wild type) [13]): 243 ± 15 nM
Compound: Nc1nc2c(ncn2[C@@H]2O[C@H](COP(=O)(O)OP(=O)(O)OP(=O)(O)O)[C@@H](O)[C@H]2O)c(=O)[nH]1 [GTP]
affinity for the GTP binding domain of Ras [1]: single to double digit picomolar

IC50 (MEK phosphorylation [14]): 750 to 1000 nM | IC50 (MEK phosphorylation [15]): 750 to 1000 nM
Compound: COCCNc1nc(-c2nccn2C)nc2sc(-c3cccc(OC)c3Cl)c(-c3ccccc3)c12 [drawing 476]
IC50 (MEK phosphorylation [16]): > 1000 nM

IC50 (MEK phosphorylation [15]): > 1000 nM
Compound: COc1cccc(-c2sc3nc(-c4nccn4C)nc(N4CCC(OC)C4)c3c2-c2ccccc2)c1F (stereo not drawn) [drawing 477]

IC50 (MEK phosphorylation [14]): > 1000 nM | IC50 (MEK phosphorylation [15]): 750 to 1000 nM
Compound: CO[C@H]1CCC(Nc2nc(-c3nccn3C)nc3sc(-c4ccn(C)n4)c(-c4ccccc4)c23)C1 (stereo partly drawn) [drawing 478]
IC50 (MEK phosphorylation [16]): > 1000 nM

Compound: COCCNc1nc(-c2nccn2C)nc2sc(-c3cccc(OC)c3Cl)c(-c3ccccc3)c12 [drawing 1076]
inhibition at 10 µM (GTP-bound RAS [17]): 76 to 100% | inhibition at 10 µM (GTP-bound RAS [18]): 76 to 100% | inhibition at 10 µM (GTP-bound RAS [19]): 76 to 100%

Compound: CO[C@H]1CCC(Nc2nc(-c3nccn3C)nc3sc(-c4ccn(C)n4)c(-c4ccccc4)c23)C1 (stereo partly drawn) [drawing 1077]
inhibition at 10 µM (GTP-bound RAS [17]): 76 to 100% | inhibition at 10 µM (GTP-bound RAS [18]): 76 to 100% | inhibition at 10 µM (GTP-bound RAS [19]): 76 to 100%

Compound: CO[C@H]1CC[C@@H](Nc2nc(-c3nccn3C)nc3sc(-c4ccn(C(C)C)n4)c(C4=CC=CCC=C4)c23)C1 [drawing 1078]
inhibition at 10 µM (GTP-bound RAS [17]): 76 to 100%

IC50 (GTP-bound RAS [17]): 750 to 1000 nM | IC50 (GTP-bound RAS [19]): 750 to 1000 nM
Compound: COCCNc1nc(-c2nccn2C)nc2sc(-c3cccc(OC)c3Cl)c(-c3ccccc3)c12 [drawing 1079]
IC50 (GTP-bound RAS [18]): > 1000 nM

IC50 (GTP-bound RAS [17]): > 1000 nM | IC50 (GTP-bound RAS [19]): 750 to 1000 nM
Compound: CO[C@H]1CCC(Nc2nc(-c3nccn3C)nc3sc(-c4ccn(C)n4)c(-c4ccccc4)c23)C1 (stereo partly drawn) [drawing 1080]
IC50 (GTP-bound RAS [18]): > 1000 nM
